Our source for the TGI values is PubChem BioAssay (NCI).

Some test systems named below: SF-268 CNS; SK-MEL-28 melanoma; DU-145 prostate; MCF7 breast; MALME-3M melanoma; MDA-MB-435; BT-549 breast; UACC-62 melanoma; NCI-H522 lung; HL-60(TB) leukemia.
Common to all, as to experiment: inhibition of tumour cell growth, NCI panel, 48 h

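1) Cells in 96-well plates. 2) Compound, 48 h, 5 concentrations. 3) Linear interpolation between surrounding doses. 4) Unreached endpoint = highest concentration. The concentration for full growth arrest is given as TGI.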

As for `COc1ccc(-c2c(/C=N/OCC(=O)O)c3sc4ccccc4n3c2/C=N/OCC(=O)O)cc1`, the TGI in the test with SF-268 CNS, with SK-MEL-28 melanoma, in the test with DU-145 prostate, in the test on MCF7 breast, in the test on MALME-3M melanoma and in the test with MDA-MB-435 was above 50 µM in each case. Further, the TGI in the test on BT-549 breast, in the test on UACC-62 melanoma and in the test on NCI-H522 lung was above 50 µM each time.

As to `COc1ccc(-c2nc(-c3cnccn3)n(C/C=C/c3ccccc3)n2)cc1`, the TGI with SK-MEL-28 melanoma, with HL-60(TB) leukemia, in the test with DU-145 prostate, in the test on MCF7 breast, with MDA-MB-435 and with BT-549 breast was above 100 µM in each case. The TGI in the test on UACC-62 melanoma and with NCI-H522 lung was above 100 µM each time.

`Cc1noc(-c2ccc(C(=O)O)[nH]2)c1Br`: the TGI in the test on SF-268 CNS, with SK-MEL-28 melanoma, in the test on DU-145 prostate, with MCF7 breast, in the test on MALME-3M melanoma and in the test on MDA-MB-435 was above 100 µM each time. In addition, the TGI in the test on BT-549 breast, in the test on UACC-62 melanoma and in the test on NCI-H522 lung was above 100 µM throughout.

Turning to `CN(C)Cc1cc(/C=C/C(=O)c2ccc(Br)cc2)cc(CN(C)C)c1O`, the TGI in the test on SF-268 CNS was found to be 33.4 µM; in the test on SK-MEL-28 melanoma it was 34.9 µM; with HL-60(TB) leukemia it was 50.6 µM; in the test with DU-145 prostate, 33.7 µM; in the test on MCF7 breast it was 50.5 µM; with MALME-3M melanoma it was 31.6 µM. Further, the TGI with MDA-MB-435 came out at 36.8 µM; with BT-549 breast it was 34.4 µM; with UACC-62 melanoma, 39.1 µM.

For `COc1ccc(NCn2nc(CCCCCCCCc3nn(CNc4ccc(OC)cc4)c(=S)o3)oc2=S)cc1`, the TGI in the test on SF-268 CNS, with SK-MEL-28 melanoma, in the test with DU-145 prostate, in the test with MCF7 breast, in the test with MALME-3M melanoma and in the test on MDA-MB-435 was above 100 µM in each case. Moreover, the TGI in the test on BT-549 breast, in the test with UACC-62 melanoma and in the test with NCI-H522 lung was above 100 µM each time.

On to `CC(=O)N1CCOC12N=NC(C)(C)O2` (stereo not drawn), for which the TGI in the test with SF-268 CNS, in the test on SK-MEL-28 melanoma, in the test on DU-145 prostate, with MCF7 breast, with MALME-3M melanoma and in the test with MDA-MB-435 was above 100 µM each time. For the same compound, the TGI in the test with BT-549 breast, in the test on UACC-62 melanoma and in the test on NCI-H522 lung was above 100 µM throughout.

`Cc1cc(C)c(S(=O)(=O)N(CCCCCN)OCCCN)c(C)c1`: the TGI in the test with SF-268 CNS came to 37.6 µM; in the test on SK-MEL-28 melanoma, 32.2 µM; in the test on DU-145 prostate it was 31.2 µM; in the test with MCF7 breast it was 33.5 µM; with MALME-3M melanoma, 40.2 µM; in the test on MDA-MB-435, 34.9 µM. In addition, the TGI turned out to be 32.4 µM in the test on BT-549 breast and 33.4 µM in the test with UACC-62 melanoma.

For `Nc1ccnc2c1ncn2[C@H]1C[C@H](O)[C@@H](CO)O1`, the TGI in the test with SF-268 CNS, in the test on SK-MEL-28 melanoma, in the test with HL-60(TB) leukemia, in the test with DU-145 prostate, with MCF7 breast and in the test with MDA-MB-435 was above 100 µM each time. Moreover, the TGI in the test with BT-549 breast, in the test with UACC-62 melanoma and with NCI-H522 lung was above 100 µM each time.

Turning to `CCOC(=O)C1=C(N2CCCC2)C(=O)C(C(=O)OCC)C1` (stereo not drawn), the TGI in the test with SF-268 CNS, with SK-MEL-28 melanoma, in the test with MCF7 breast, in the test on MALME-3M melanoma, in the test on MDA-MB-435 and in the test on BT-549 breast was above 100 µM in each case. In the test on NCI-H522 lung, this compound showed a TGI above 100 µM.

Regarding `CSCCC(NC(=O)C(Cc1c[nH]c2ccccc12)NC(=O)CCNC(=O)OC(C)(C)C)C(=O)NC(CC(=O)O)C(=O)NC(Cc1ccccc1)C(N)=O` (stereo not drawn), the TGI with SF-268 CNS, in the test on SK-MEL-28 melanoma, with HL-60(TB) leukemia, with DU-145 prostate, with MCF7 breast and in the test with MDA-MB-435 was above 50 µM in each case. Moreover, the TGI in the test on BT-549 breast, in the test with UACC-62 melanoma and with NCI-H522 lung was above 50 µM in each case.

Consider `COc1ccc(-c2csc3c2[N+]2(C)C=CC=C2C3N2CCCC2)cc1` (stereo not drawn), for which the TGI in the test with SF-268 CNS was above 100 µM; with HL-60(TB) leukemia, above 100 µM; in the test with MCF7 breast it was above 100 µM; in the test on MALME-3M melanoma it was 50.5 µM; in the test on MDA-MB-435, 59.5 µM; in the test with BT-549 breast, 58.3 µM. Also, the TGI in the test with UACC-62 melanoma stood at 38.2 µM; in the test on NCI-H522 lung, 19.1 µM.

Consider `C(=Nc1ccc(-c2nc3ccccc3s2)cc1)c1cccs1`, for which the TGI in the test with SF-268 CNS was above 100 µM; with SK-MEL-28 melanoma, above 100 µM; with HL-60(TB) leukemia, 0.0298 µM; in the test on DU-145 prostate, above 100 µM; with MALME-3M melanoma, above 100 µM; with MDA-MB-435 it was above 100 µM. Moreover, the TGI in the test with BT-549 breast, in the test with UACC-62 melanoma and in the test with NCI-H522 lung was above 100 µM throughout.

Take `O=C(NNC(=O)c1ccncc1)C(=O)Nc1cc(Cl)c(Cl)cc1Cl`: the TGI with SF-268 CNS, in the test with SK-MEL-28 melanoma, in the test on HL-60(TB) leukemia, in the test with MCF7 breast, in the test on MALME-3M melanoma and with MDA-MB-435 was above 100 µM throughout. Further, the TGI with BT-549 breast, in the test on UACC-62 melanoma and with NCI-H522 lung was above 100 µM throughout.

For `C/C(=N\Nc1nc2cc(F)ccc2s1)c1ccccn1`, the TGI with SF-268 CNS was 1.65 µM; with SK-MEL-28 melanoma, above 100 µM; in the test with DU-145 prostate it was above 100 µM; in the test with MCF7 breast it was above 100 µM; with MALME-3M melanoma, 23 µM; with MDA-MB-435, above 100 µM. In addition, the figures for the TGI with BT-549 breast, in the test with UACC-62 melanoma and in the test with NCI-H522 lung were 5.84 µM, 1.46 µM and 2.62 µM, respectively.

Consider `C=CCN1C(=O)C[C@H](Cc2ccccc2)NC(=O)C[C@H](Cc2ccccc2)N(CC=C)C(=O)C[C@H](Cc2ccccc2)NC(=O)C[C@@H]1Cc1ccccc1`, for which the TGI in the test with SF-268 CNS is above 100 µM; in the test with SK-MEL-28 melanoma, above 100 µM; in the test with HL-60(TB) leukemia, 9.37 µM; in the test with DU-145 prostate it was above 100 µM; in the test with MCF7 breast, above 100 µM; in the test on MALME-3M melanoma, 50.6 µM. The TGI with MDA-MB-435, with BT-549 breast and with UACC-62 melanoma was above 100 µM throughout.

On to `Cc1ccc(N=Nc2c(O)ccc3ccccc23)c(C)c1`, for which the TGI in the test on SF-268 CNS, with SK-MEL-28 melanoma, in the test with DU-145 prostate, with MDA-MB-435, with BT-549 breast and with UACC-62 melanoma was above 100 µM throughout.

With `CCC1OC2(C)CC(C#N)(C#N)C1(C#N)C(=N)O2` (stereo not drawn), the TGI in the test on SF-268 CNS, in the test with SK-MEL-28 melanoma, in the test on HL-60(TB) leukemia, in the test with DU-145 prostate, in the test on MCF7 breast and with MALME-3M melanoma was above 100 µM throughout. Moreover, the TGI with MDA-MB-435, with BT-549 breast and in the test with UACC-62 melanoma was above 100 µM throughout.

Consider `CC(C)(C)N=C1C(=O)C2(C)CCC1C2(C)C` (stereo not drawn), for which the TGI in the test on SF-268 CNS, with SK-MEL-28 melanoma, with DU-145 prostate, in the test on MCF7 breast, in the test on MALME-3M melanoma and in the test on MDA-MB-435 was above 100 µM each time. Besides, the TGI with BT-549 breast is above 100 µM; in the test on UACC-62 melanoma, 34.8 µM.

Take `Clc1cc(Cl)nc(Nc2ccc3c(c2)CCC3)n1`: the TGI in the test with SF-268 CNS is above 100 µM; with SK-MEL-28 melanoma, above 100 µM; in the test on HL-60(TB) leukemia, 73 µM; with DU-145 prostate it was above 100 µM; in the test on MCF7 breast, 70.8 µM; with MALME-3M melanoma it was 93.3 µM. For the same compound, the TGI in the test with MDA-MB-435, with BT-549 breast and in the test on UACC-62 melanoma was above 100 µM each time.

Take `CC1(C)Cc2ccccc2C(C)(Cl)C(=O)N1` (stereo not drawn): the TGI with SF-268 CNS, with SK-MEL-28 melanoma, with HL-60(TB) leukemia, with DU-145 prostate, with MCF7 breast and in the test on MALME-3M melanoma was above 10 µM throughout. The TGI with MDA-MB-435, with BT-549 breast and with UACC-62 melanoma was above 10 µM each time.

As to `Oc1c(NCn2nc(CCCCCCCCc3nn(CNc4ccc5ccccc5c4O)c(=S)o3)oc2=S)ccc2ccccc12`, the TGI in the test with SF-268 CNS is above 100 µM; in the test on SK-MEL-28 melanoma it was above 100 µM; in the test on DU-145 prostate, above 100 µM; in the test on MCF7 breast, above 100 µM; in the test with MALME-3M melanoma, above 100 µM; in the test with MDA-MB-435, 43.2 µM. Also, the TGI in the test with BT-549 breast, in the test on UACC-62 melanoma and with NCI-H522 lung was above 100 µM each time.

As for `COc1c(NC(C)=O)c2ccccc2c2ccccc12`, the TGI with SF-268 CNS, in the test with SK-MEL-28 melanoma, in the test on HL-60(TB) leukemia, in the test with DU-145 prostate, in the test on MALME-3M melanoma and in the test with MDA-MB-435 was above 100 µM throughout. Further, the TGI with BT-549 breast, with UACC-62 melanoma and in the test with NCI-H522 lung was above 100 µM in each case.

`Cc1c2oc(=O)c(C#N)cc2c2ccccn12`: the TGI with SF-268 CNS, in the test on SK-MEL-28 melanoma, in the test with HL-60(TB) leukemia, in the test on DU-145 prostate, in the test with MCF7 breast and in the test with MALME-3M melanoma was above 100 µM throughout. For the same compound, the TGI in the test with MDA-MB-435, with BT-549 breast and in the test with UACC-62 melanoma was above 100 µM each time.
